According to patent publication US6689813B2 (Biostatin Gyogyszerkutato-Fejleszto kft., priority 1998, dated 2004):
Where no end group is shown, it is not given here. [ ]: non-standard residue; d: D form.

Test system: Wistar rats
Experiment: 1% mustard oil-induced neurogenic inflammation (Evans blue plasma extravasation, foot skin)
Type: in vivo, rat
Method: Thirty minutes after acute bilateral denervation of the lower limbs (transsection of the saphenous and sciatic nerves), 50 mg/kg of Evans blue dye was administered to the tail vein of nembutal-anaesthetized (pentobarbital, 40 mg/kg i.p.) Wistar rats (150-220 g body weight; 5 to 7 animals in each group). […] The mustard oil induces a so-called neurogenic inflammation by the selective stimulation of the peripheral endings of CSPAN's and by releasing the mediators being present therein (chiefly tachykinins and CGRP); this neurogenic inflammation appears as a vasodilatation in the area of arterioles and in the form of a plasma extravasation at the venular side. Since the dye Evans blue is bound to serum albumin in the vascular bed, its precipitation and accumulation in the upper skin surface of foot are proportional to the extent of plasma extravasation. Thus, the quantitative determination of intensity of the inflammation becomes possible. After the painting with mustard oil, the animals were bled, the foot dorsum skins were cut out and their weights were determined. The amount of dye extracted during 72 hours of incubation in formamide was determined at 620 nm on a spectrophotometer (Spectromon 195). The amount (expressed as μg) of the extravasated Evans blue related to one g of wet tissue was calculated by means of the following formula:
Evans blue (μg/g)=E×V×k/m
E is the light absorption of the solution, V means the volume (ml) of the solution, m is the weight […] of the skin cut out from the foot dorsum skin; and k is a constant determined on the basis of a dilution series, which is characteristic of the dye solution.

Substance: D-Phe-Cys-Tyr-D-Trp-Lys-Cys-Thr-NH2 ([dF]CY[dW]KCT-NH2; cysteine pairing not given here) [TT-232]
- Decrease % (Evans blue extravasation vs control) (20 μg/kg i.p., 1% mustard oil): 63.616%
- Evans blue extravasation (20 μg/kg i.p., 1% mustard oil on feet, control 169.525): 61.68 µg/g
- inhibition of mustard oil-induced neurogenic inflammation (in words) (20 μg/kg, 20 minutes after i.p. administration): significantly inhibited
- equipotent dose ratio vs somatostatin (times lower dose) (dose/effect relation, FIG. 2): ~8 times
- highest antiinflammatory effect relative to highest effect of somatostatin (dose/effect relation, FIG. 2): double
- inhibition of inflammation (intravenous dose of 2.5 μg/kg, 2 hours after administration (FIG. 2.a)): 35%
